Holding throughout (assay type): physicochemical
Data set [1] can be described thus: Visual examination of physical appearance and mixing of drug-loaded silicone polymer matrix test samples. An excerpt:
To test the loading capacity of a silicone elastomer polymer matrix for a prostaglandin analogue, polymer matrix with different amounts and types of a prostaglandin analogue were made and the physical and mechanical properties of the resulting polymerized drug-loaded matrix were characterized (Tables 1-3). These polymer matrix test samples were made by mixing together a prostaglandin analogue, a liquid cyclic vinyl siloxane elastomer, a crosslinker, and a catalyst using a high-speed mixer and then heated the capped container at 70° C. for 24 hours to cure the mixture. A filler, such as a fumed silica, was also used to provide sufficient mechanical strength to the polymerized matrix. In addition, an inhibitor was used to slow the crosslinking reaction to a workable rate. The resulting thin-disc-shaped drug-loaded polymer matrix was allowed to cool to room temperature and then placed in 4° C. for 24 hours to increase stiffness of the material. The physical appearance of each drug-loaded polymer matrix test sample was examined visually and its mechanical properties analyzed using a durometer.

Data set [2] can be described thus: Higuchi equation analysis of drug release data. Here is the method: In order to ascertain whether the mechanism of drug release was based on diffusion, data obtained from various coated silicone polymer matrices were analyzed using the Higuchi equation. This analysis determined the linearity between the cumulative amount of drug released and the square root of time (SQRT). […] As exemplified FIG. 10, data is plotted as the square root of time taken on the x-axis and the cumulative percentage of drug release on the y-axis.

Data set [3] is described as follows: Korsmeyer-Peppas analysis of drug release data. As to conditions: for Average n Values, Korsmeyer-Peppas Analysis, Mean: Mean over drug loadings. As to the method:
To confirm the results obtained based on the Higuchi equation analysis, the data above was also analyzed using the Korsmeyer-Peppas plot, which evaluates the mechanism of drug release by plotting the log of percent drug released over the log time in hours. If n equals 0.45, then Fickian diffusion is indicated for a cylinder (0.42 for cylinder of low aspect ratio). […] As exemplified FIG. 11, data is plotted as the log of cumulative percent drug released on the y-axis and the log time in hours on the x-axis.

Data set [4] is described as follows: Modified Higuchi plot (2A versus Q^2/T). As to the method:
Travoprost and Latanoprost are oily liquids at room temperature whereas Bimatoprost is a solid at room temperature. To determine whether the liquid versus solid phase of these drugs affects their release from the silicone polymer matrix, data was analyzed using an alternative plot based on the Higuchi equation where twice the drug loading value (2A) is plotted on the […] and the average slope of the plot of cumulative drug released squared versus time in hours (Q^2/T) is plotted on the […].

Data set [5] is described as follows: Chemical stability of prostaglandin analogues in PBS, RPHPLC. As to conditions: PBS at pH 4, 7 and 10; 4° C., 33° C. and 50° C. As to the method:
The chemical stability of prostaglandin analogues was also examined. In these experiments, a prostaglandin analogue was incubated in phospho-buffered saline (PBS) at pH 4, 7 and 10 and at 4° C., 33° C. and 50° C. representing long term storage, eye temperature and accelerate temperature conditions respectively. Analyses were performed by RPHPLC as described in Example 2, noting any hydrolysis products formed. […] This stability is most likely due to the amide linkage in Bimatoprost which is much more hydrolytically stable than the ester linkage in Latanoprost and Travoprost.

Data set [6] can be described thus: In vitro drug release from silicone polymer matrix test samples in PBS pH 7.4 at 37° C., RPHPLC. As to conditions: for Daily Release Rate: 25% Latanoprost matrix plug, PTFE Thread Seal Tape coat, two 18G depot channels. Here is the method:
To test the controlled release properties of the disclosed drug-loaded silicone polymer matrices, the effects of a coating were examined. In these experiments, test samples were made as described in Example 1 to produce thin-disc-shaped drug-loaded polymer matrix. From this material, test samples were prepared by 1) cutting out rectangular polygons of about 3 mm length, about 1 mm width and about 1 mm height were cut from polymerized drug-loaded material; or 2) cutting out cylindrical plugs of about 3 mm length and having a diameter of about 0.5 mm to about 1 mm. The weight of the test samples were in the range about 0.1 mg to about 4 mg.
Certain of these cut test samples were then coated using one of three procedures. Cut test samples were coated with a polymer like poly(p-xylylene) (PARYLENE) to a thickness of about 0.10 μm to about 0.95 μm using a vapor phase deposition procedure. Similarly, cut test samples were coated a metal like titanium to a thickness of about 0.10 μm to about 0.95 μm using a vapor phase deposition procedure. Alternatively, cut test samples were physically wrapped with a tape like polytetrafluoroethylene tape and sealed using cyanoacrylate adhesive.
The presence of opening in a coated test sample was also examined. In these experiments, coated test samples were punctured to produce opening through the coating layer. From one to four opening were made using the tip of an 18G, 23G, 27G or 31G needle. Two types of opening were produced 1) surface pores which created openings only through the coating layer but left the polymer matrix intact; and 2) depot channels which created a tunnel through the entire coated test sample from one end to the other end.
To examine the drug release properties of a test sample, each sample was placed in 2 mL Eppendorf tube containing 1.5 mL of Phosphate Buffered Saline, pH 7.4 (PBS). These tubes were slowly rocked at 37° C. in an incubator. At given time points the PBS was completely removed from the tube and refilled with fresh PBS. An aliquot of the removed PBS was then analyzed by reversed phase HPLC (RPHPLC) to determine the amount of drug released from the test sample during the incubation period. In these experiments, a 10 μL injection of the test sample aliquot was run on an Agilent 1260 Infinity in a reverse phase isocratic mode using UV detection at 210 nm. The column was a Hypersil GOLD Phenyl column, (Dim. (mm) 250×4.6) and the mobile phase was a 1:1 mixture of acetonitrile to aqueous buffer (comprising HPLC grade water mixed with 5 mM ammonium acetate and 0.02% formic acid). The flow rate was 1.2 mL/min and column temperature was 22° C. Peak detection and quantitation was determined by establishing a calibration curve using known amounts of each drug tested and the amount of drug present in the test sample aliquot interpolated from this calibration curve using ChemStation software.

Take `CCNC(=O)CCC/C=C\C[C@@H]1[C@@H](/C=C/[C@@H](O)CCc2ccccc2)[C@H](O)C[C@@H]1O` [Bimatoprost]: the “mixing in the liquid siloxane elastomer” value in data set [1] (15% or 20% Bimatoprost test samples) was “difficult to mix in the liquid siloxane elastomer”. Further, the “physical examination of test sample” value in data set [1] (20% Bimatoprost test sample) was “brittle and contained clumps of unincorporated components from the mixture”. In addition, the “Average Linear Regression r^2 Value, Higuchi Equation Analysis” value was determined as 0.992 in data set [2] (Drug Loading 1%); 0.995 in data set [2] (Drug Loading 2.5%); 0.997 in data set [2] (Drug Loading 5%); 0.988 in data set [2] (Drug Loading 10%); 0.994 in data set [2] (Drug Loading 15%); 0.972 in data set [2] (Drug Loading 20%). In addition, the “Average n Values, Korsmeyer-Peppas Analysis” value in data set [3] (Drug Loading 1%) is reported as 0.326±; in data set [3] (Drug Loading 2.5%), 0.372±; in data set [3] (Drug Loading 5%), 0.411±; in data set [3] (Drug Loading 10%) it was 0.377±; in data set [3] (Drug Loading 15%), 0.380±; in data set [3] (Drug Loading 20%), 0.601±. Besides, the “Average n Values, Korsmeyer-Peppas Analysis, Mean” value in data set [3] came out at 0.37 ± 0.08. Besides, the “average slope of cumulative drug released squared versus time in hours (Q^2/T)” value in data set [4] (Loading (A %) 1.0) was 0.204 ± 0.035; in data set [4] (Loading (A %) 2.5) it was 0.387 ± 0.009; in data set [4] (Loading (A %) 5.0), 1.680 ± 0.232; in data set [4] (Loading (A %) 10), 2.327 ± 0.252. In addition, the “relationship of Q^2/T to 2A in modified Higuchi plot” value in data set [4] (Table 10, FIG. 12 and FIG. 13) is given as “linear relationship”. The “chemical stability (hydrolysis products)” value in data set [5] is recorded as “excellent stability with Bimatoprost being the most stable”.

`CC(C)OC(=O)CCC/C=C\C[C@@H]1[C@@H](CC[C@@H](O)CCc2ccccc2)[C@H](O)C[C@@H]1O` [Latanoprost]: the “physical examination of test sample” value in data set [1] (25% Latanoprost test sample) is “exhibited more elasticity but had a surface with tacky attributes and a consistency that was not fully homogeneous”. In addition, the “Daily Release Rate” value in data set [6] (day 7) amounted to 3.86 µg/day; in data set [6] (day 19) it was 5.68 µg/day; in data set [6] (day 29), 3.60 µg/day; in data set [6] (day 64), 5.11 µg/day; in data set [6] (day 71) it was 8.13 µg/day; in data set [6] (day 106), 2.82 µg/day. In addition, the “Daily Release Rate” value in data set [6] (day 122) was determined as 1.18 µg/day. The “period of near zero order release” value in data set [6] (coated test sample, 25% Latanoprost, four surface pores) was determined as 42 days. The “total amount of drug released” value in data set [6] (coated test sample, 25% Latanoprost, four surface pores, as of 140 days) is reported as 2.2%. Moreover, the release profile entry in data set [6] (uncoated silicone polymer matrix loaded with 10% Latanoprost, FIG. 5) was “rapid release of the drug over the first five days, which then tapers off and by day 12 shows no further significant release of Latanoprost”. Moreover, the “Average Linear Regression r^2 Value, Higuchi Equation Analysis” value was 0.964 in data set [2] (Drug Loading 5%), 0.983 in data set [2] (Drug Loading 10%), 0.990 in data set [2] (Drug Loading 15%) and 0.990 in data set [2] (Drug Loading 20%). In addition, the “Average n Values, Korsmeyer-Peppas Analysis” value in data set [3] (Drug Loading 5%) is listed as 0.504±; in data set [3] (Drug Loading 10%), 0.501±; in data set [3] (Drug Loading 15%) it was 0.712±; in data set [3] (Drug Loading 20%), 1.200±. In addition, the “Average n Values, Korsmeyer-Peppas Analysis, Mean” value in data set [3] was 0.57 ± 0.16.
